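1) Cells in 96-well plates. 2) Compound, 48 h, 5 concentrations. 3) Linear interpolation between surrounding doses. 4) Unreached endpoint = highest concentration. Abbreviation: GI50, concentration required for 50% inhibition of growth.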 Activity calls are given as the source filed them. No stated cut-off is given here; in the data, active = GI50 up to about 1.1 µM and inactive = higher.
Assays:
Test in all cases: inhibition of tumour cell growth, NCI panel, 48 h
[1] = test system: 786-0
[2] = test system: A498
[3] = test system: A549
[4] = test system: ACHN
[5] = test system: BT-549
[6] = test system: CAKI-1
[7] = test system: COLO 205
[8] = test system: EKVX
[9] = test system: HCT-116
[10] = test system: HCT-15
[11] = test system: HOP-62
[12] = test system: HOP-92
[13] = test system: HT-29
[14] = test system: Hs-578T
[15] = test system: IGROV-1
[16] = test system: K562
[17] = test system: KM12
[18] = test system: LOX IMVI
[19] = test system: M14
[20] = test system: MCF7
[21] = test system: MDA-MB-231
[22] = test system: MDA-MB-435
[23] = test system: MDA-N
[24] = test system: MOLT-4
[25] = test system: Malme-3M
[26] = test system: NCI-H226
[27] = test system: NCI-H23
[28] = test system: NCI-H460
[29] = test system: NCI-H522
[30] = test system: NCI/ADR-RES
[31] = test system: OVCAR-3
[32] = test system: OVCAR-4
[33] = test system: OVCAR-5
[34] = test system: OVCAR-8
[35] = test system: PC-3
[36] = test system: RPMI-8226
[37] = test system: RXF 393
[38] = test system: SF-268
[39] = test system: SF-295
[40] = test system: SF-539
[41] = test system: SK-MEL-28
[42] = test system: SK-MEL-2
[43] = test system: SK-MEL-5
[44] = test system: SK-OV-3
[45] = test system: SN12C
[46] = test system: SNB-19
[47] = test system: SNB-75
[48] = test system: SR
[49] = test system: SW-620
[50] = test system: T47D
[51] = test system: TK-10
[52] = test system: U-251
[53] = test system: UACC-257
[54] = test system: UACC-62
[55] = test system: UO-31

Which results are given for `NS(=O)(=O)c1nc(S(=O)(=O)O)c2[nH]cnc2n1`?
GI50 [1]: > 100 µM (inactive); GI50 [2]: > 100 µM (inactive); GI50 [3]: > 100 µM (inactive); GI50 [4]: > 100 µM (inactive); GI50 [5]: > 100 µM (inactive); GI50 [6]: > 100 µM (inactive); GI50 [7]: > 100 µM (inactive); GI50 [8]: > 100 µM (inactive); GI50 [9]: > 100 µM (inactive); GI50 [10]: > 100 µM; GI50 [11]: > 100 µM (inactive); GI50 [12]: > 100 µM (inactive); GI50 [13]: > 100 µM (inactive); GI50 [14]: > 100 µM (inactive); GI50 [15]: > 100 µM (inactive); GI50 [16]: > 100 µM (inactive); GI50 [17]: > 100 µM (inactive); GI50 [18]: > 100 µM (inactive); GI50 [19]: > 100 µM (inactive); GI50 [20]: > 100 µM (inactive); GI50 [21]: > 100 µM (inactive); GI50 [22]: > 100 µM (inactive); GI50 [23]: > 100 µM (inactive); GI50 [24]: 29 µM (inactive); GI50 [25]: > 100 µM (inactive); GI50 [26]: > 100 µM (inactive); GI50 [27]: > 100 µM (inactive); GI50 [28]: > 100 µM (inactive); GI50 [29]: > 100 µM (inactive); GI50 [30]: > 100 µM (inactive); GI50 [31]: > 100 µM (inactive); GI50 [32]: > 100 µM (inactive); GI50 [33]: > 100 µM (inactive); GI50 [34]: > 100 µM (inactive); GI50 [35]: > 100 µM (inactive); GI50 [36]: > 100 µM (inactive); GI50 [37]: > 100 µM (inactive); GI50 [38]: > 100 µM (inactive); GI50 [39]: > 100 µM (inactive); GI50 [40]: > 100 µM (inactive); GI50 [41]: > 100 µM (inactive); GI50 [42]: > 100 µM (inactive); GI50 [43]: > 100 µM (inactive); GI50 [44]: > 100 µM (inactive); GI50 [45]: > 100 µM (inactive); GI50 [46]: > 100 µM (inactive); GI50 [47]: > 100 µM (inactive); GI50 [48]: > 100 µM (inactive); GI50 [49]: > 100 µM (inactive); GI50 [50]: > 100 µM (inactive); GI50 [51]: > 100 µM (inactive); GI50 [52]: > 100 µM (inactive); GI50 [53]: > 100 µM (inactive); GI50 [54]: > 100 µM (inactive); GI50 [55]: > 100 µM (inactive)

— ChEMBL document CHEMBL1201862, “PubChem BioAssay data set” (2004)
